In patent publication US8288552B2, “Dihydropyridone amidesas P2X7 modulators” (Roche Palo Alto LLC, priority 2008, dated 2012):

These compounds were tested against T1, P2X7 (UniProt Q99572) (assay: P2X7 pKi of Table 1).
T1 sequence (Q99572 1-595): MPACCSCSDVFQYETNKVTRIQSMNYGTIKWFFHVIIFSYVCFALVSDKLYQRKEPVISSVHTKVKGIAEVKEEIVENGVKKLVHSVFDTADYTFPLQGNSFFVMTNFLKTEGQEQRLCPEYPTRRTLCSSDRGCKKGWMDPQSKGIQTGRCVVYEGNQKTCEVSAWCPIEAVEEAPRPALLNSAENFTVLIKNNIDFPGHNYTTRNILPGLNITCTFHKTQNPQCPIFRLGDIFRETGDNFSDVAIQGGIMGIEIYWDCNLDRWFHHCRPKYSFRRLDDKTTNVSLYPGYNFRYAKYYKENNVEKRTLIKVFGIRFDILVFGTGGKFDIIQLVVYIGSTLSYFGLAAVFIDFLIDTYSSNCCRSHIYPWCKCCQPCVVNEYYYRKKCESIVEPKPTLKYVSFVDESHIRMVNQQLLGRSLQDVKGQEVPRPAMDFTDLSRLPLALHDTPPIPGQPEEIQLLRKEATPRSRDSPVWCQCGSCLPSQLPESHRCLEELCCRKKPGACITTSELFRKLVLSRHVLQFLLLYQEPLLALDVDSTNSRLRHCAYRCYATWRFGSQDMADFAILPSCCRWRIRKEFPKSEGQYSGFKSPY
Format: cell-based
Method in brief: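 Human P2X7 in 1321N1 cells and rat P2X7 in HEK293 cells, loaded with fluo-3 for 1 hr at 37° C, then exposed to antagonist for 20 min at room temperature. BzATP agonist was used at 100 μM final (human) or 5 μM final (rat), with fluorescence read for 5 min. The response was normalized to maximal fluorescence evoked by 5 μM ionomycin.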

SMILES | pKi
Cc1cc(Cl)c(OCC(C)O)cc1NC(=O)C1=CNC(=O)C[C@H]1c1cccc(F)c1 (stereo partly drawn) [Compound 117, (S)-4-(3-Fluoro-phenyl)-6-oxo-1,4,5,6-tetrahydro-pyridine-3-carboxylic acid[4-chloro-5-(2-hydroxy-propoxy)-2-methyl-phenyl]-amide] | 7.06
Cc1ccc(NC(=O)C2=CNC(=O)C[C@H]2c2cccc(F)c2)cc1C(C)O (stereo partly drawn) [Compound 120, (S)-4-(3-Fluoro-phenyl)-6-oxo-1,4,5,6-tetrahydro-pyridine-3-carboxylic acid[3-(1-hydroxy-ethyl)-4-methyl-phenyl]-amide] | 6.635
Cc1c(NC(=O)C2=CNC(=O)C[C@H]2c2ccc(F)cc2)cc(OCCO)c(F)c1F [Compound 121, (S)-4-(4-Fluoro-phenyl)-6-oxo-1,4,5,6-tetrahydro-pyridine-3-carboxylic acid [3,4-difluoro-5-(2-hydroxy-ethoxy)-2-methyl-phenyl]-amide] | 7.41
Cc1cc(Cl)c(CN(CCO)CCO)cc1NC(=O)C1=CNC(=O)C[C@H]1c1ccc(F)cc1 [Compound 124, (S)-4-(4-Fluoro-phenyl)-6-oxo-1,4,5,6-tetrahydro-pyridine-3-carboxylic acid(5-{[bis-(2-hydroxy-ethyl)-amino]-methyl}-4-chloro-2-methyl-phenyl)-amide] | 6.75
COC(=O)COc1cc(NC(=O)C2=CNC(=O)C[C@H]2c2ccc(F)cc2)c(C)cc1Cl [Compound 125, (2-Chloro-5-{[(S)-4-(4-fluoro-phenyl)-6-oxo-1,4,5,6-tetrahydro-pyridine-3-carbonyl]-amino}-4-methyl-phenoxy)-acetic acid methyl ester] | 7.645
COc1cc(C)c(NC(=O)C2=C(C)NC(=O)CC2c2ccc(C(F)(F)F)cc2)cc1OC (stereo not drawn) [Compound 127, 2-Methyl-6-oxo-4-(4-trifluoromethyl-phenyl)-1,4,5,6-tetrahydro-pyridine-3-carboxylic acid(4,5-dimethoxy-2-methyl-phenyl)-amide] | 5.055
O=C1C[C@@H](c2ccc(F)cc2)C(C(=O)Nc2cccc(Cl)c2Cl)=CN1 [Compound 128, (S)-4-(4-Fluoro-phenyl)-6-oxo-1,4,5,6-tetrahydro-pyridine-3-carboxylic acid (2,3-dichloro-phenyl)-amide] | 6.75

Results, then the compound that gave them:

pKi | SMILES
7.075 | CCc1cc(Cl)c(OC)cc1NC(=O)C1=CNC(=O)C[C@H]1c1ccc(F)cc1 [Compound 118, (S)-4-(4-Fluoro-phenyl)-6-oxo-1,4,5,6-tetrahydro-pyridine-3-carboxylic acid(4-chloro-2-ethyl-5-methoxy-phenyl)-amide]
7.2 | Cc1ccc(C(C)O)cc1NC(=O)C1=CNC(=O)C[C@H]1c1cccc(F)c1 (stereo partly drawn) [Compound 119, (S)-4-(3-Fluoro-phenyl)-6-oxo-1,4,5,6-tetrahydro-pyridine-3-carboxylic acid[5-(1-hydroxy-ethyl)-2-methyl-phenyl]-amide]
6.465 | COc1cc(C)c(NC(=O)C2=CNC(=O)CC2c2ccc(Cl)cc2)cc1OC (stereo not drawn) [Compound 122, 4-(4-Chloro-phenyl)-6-oxo-1,4,5,6-tetrahydro-pyridine-3-carboxylic acid(4,5-dimethoxy-2-methyl-phenyl)-amide]
7.293 | CCc1cc(Cl)c(OCCO)cc1NC(=O)C1=CNC(=O)C[C@H]1c1ccc(F)cc1 [Compound 123, (S)-4-(4-Fluoro-phenyl)-6-oxo-1,4,5,6-tetrahydro-pyridine-3-carboxylic acid[4-chloro-2-ethyl-5-(2-hydroxy-ethoxy)-phenyl]-amide]
6.48 | COc1cc(C)c(NC(=O)C2=C(C)NC(=O)CC2c2ccc(F)cc2)cc1OC (stereo not drawn) [Compound 126, 4-(4-Fluoro-phenyl)-2-methyl-6-oxo-1,4,5,6-tetrahydro-pyridine-3-carboxylic acid (4,5-dimethoxy-2-methyl-phenyl)-amide]
